This note sets out measurements from patent publication US20040181343A1, “Computer program products and systems for rapidly changing the solution environment around sensors” (Cellectricon AB, priority 2002, published 2004).

This experiment has as its system PC-12 cell. As to conditions: cell-scanning speed 250 μm/s. From the text: The flow rate was 3.24 mm/s and the cell scanning speed was 250 μm/s.
In these applications, as discussed above, both the flow rate of the fluids exiting the microchannels and the scan rate of the patch clamped cell are important. […] The width of each microchannel is 100 μm, the thickness is 50 μm, and the intermicrochannel spacing is 25 μm. The procedure used for fabricating the microchannels and for patch clamping are identical to that described in Example 2 (see above). The patch clamped cell used was a PC-12 cell, which was placed between 10 to 20 micrometers away from the outlets of the microchannels. Microchannels 1, 3, 5 and 7 were filled with PBS buffer, while microchannels 2, 4 and 6 were filled with acetylcholine. The flow rate of the fluid streams was 6.8 mm/s.
In a 7-microchannel structure, microchannels 1, 3, 5 and 7 were filled with PBS buffer, whereas microchannels 2, 4, and 6 were filled with 1 μM, 12 μM, and 200 μM nicotine, respectively. The flow rate used was […] and the cell-scanning speed was 250 μm/s. The patch-clamped cell was placed between 10 to 20 μm away from the outlet of the microchannel.

For `CN1CCCC1c1cccnc1` (stereo not drawn) [nicotine], the Whole-cell current response entry (1 μM nicotine) was “barely discernible”. In addition, the Whole-cell current peak entry (12 μM nicotine) is “detected with good signal-to-noise ratio”. Besides, the “Current peak at 200 μM relative to the peak for 12 μM” value (200 μM nicotine versus 12 μM) is on record as 15 to 20 times.
